Assay [1] deals with T1, ER-α in MCF-7 cells (Homo sapiens, UniProt P03372).
T1 sequence (P03372 1-595): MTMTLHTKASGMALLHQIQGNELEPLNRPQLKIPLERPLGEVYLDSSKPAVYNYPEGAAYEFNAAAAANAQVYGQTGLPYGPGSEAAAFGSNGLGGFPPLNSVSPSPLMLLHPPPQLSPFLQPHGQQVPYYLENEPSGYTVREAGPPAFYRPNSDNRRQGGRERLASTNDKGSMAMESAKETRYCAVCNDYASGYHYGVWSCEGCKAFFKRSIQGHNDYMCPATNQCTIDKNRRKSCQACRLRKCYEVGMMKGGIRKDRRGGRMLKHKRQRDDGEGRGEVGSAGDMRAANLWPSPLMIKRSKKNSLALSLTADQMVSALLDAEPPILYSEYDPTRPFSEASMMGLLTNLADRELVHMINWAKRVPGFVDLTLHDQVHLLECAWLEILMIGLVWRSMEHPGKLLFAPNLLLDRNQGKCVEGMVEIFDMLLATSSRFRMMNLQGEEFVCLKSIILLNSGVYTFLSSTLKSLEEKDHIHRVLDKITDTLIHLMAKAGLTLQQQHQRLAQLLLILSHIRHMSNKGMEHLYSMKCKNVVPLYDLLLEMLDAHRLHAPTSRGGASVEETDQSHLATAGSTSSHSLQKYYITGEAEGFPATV
In words: Breast cancer cell ER-α in cell western assay (SP1). It is filed as cell-based. The note with it: 4 or 24 hr post compound addition; for Emax: MCF7, SP1 antibody, read-out: ER-α In Cell Western Assay (SP1) Max Response; for DC50: SP1 antibody, read-out: ER-α In Cell Western Assay (SP1) IC50. Also on record: endogenous in cells; host or cells: MCF-7. Here is the method: MCF-7 cells were adjusted to a concentration of 200,000 cells per mL in RPMI containing 10% charcoal-stripped FBS and 20 mM HEPES. 16 microliters of the cell suspension (3200 cells) was added to each well of a poly-D-lysine 384 well plate, and the cells were incubated overnight to allow the cells to adhere. The following day an eleven point, serial semilog dilution of each compound was added to the cells in 16 μL at a final concentration ranging from 0.3-0.000003 μM. At 4 or 24 hr post compound addition, the cells were fixed (10% formalin in PBS) for 20 minutes. Cells were permeablized in PBS 0.1% Triton and blocked with LICOR blocking buffer (50 μl/well, 90°). The wells were then incubated overnight at 4° C. with SP1 rabbit monoclonal Ab (Thermo Scientific) diluted 1:1000 in LICOR blocking buffer/0.1% Tween-20. Wells which were treated with blocking buffer with Tween but no antibody were used as a background control. Wells were washed with 0.1% Tween-20/PBS and then incubated in goat anti-rabbit IRDye™ 800CW (LICOR Inc.; 1:1000) and DRAQ5 DNA dye (1:2000 for 2 mM stock) diluted in LICOR blocking buffer containing 0.1% Tween-20 and 0.01% SDS for 60 minutes. Cells were washed (50 μl/well, 5′ each) in 0.1% Tween-20/PBS. Plates were scanned on a LICOR Odyssey infrared imaging system. Integrated intensities in the 800 nm channel and 700 nm channel were measured to determine levels of ER and DNA respectively. Percent ER levels were determined as follows: (Integrated intensity 800 nm sample/integrated intensity 700 nm sample)/(Integrated intensity 800 nm untreated cells/integrated intensity 700 nm untreated cells)×100=% ER levels.

Assay [2] relates to MCF-7 cells. In words: Breast cancer cell viability assay (CellTiter-Glo, 5 days). The note with it: 5 days' compound exposure; for IC50: Homo sapiens, MCF7, 120 h. It is filed as cell-based. Here is the method:
MCF-7 cells were adjusted to a concentration of 20,000 cells per mL in RPMI containing 10% FBS and 20 mM HEPES. 16 microliters of the cell suspension (320 cells) was added to each well of a 384 well plate, and the cells were incubated overnight to allow the cells to adhere. The following day an eleven point, serial semilog dilution of each compound was added to the cells in 16 μL at a final concentration ranging from 0.3-0.000003 μM. After 5 days' compound exposure, 16 μL of CellTiter-GLo (Promega, Madison Wis.) was added to the cells the relative luminescence units (RLUs) of each well was determined CellTiter-Glo added to 32 μL of medium without cells was used to obtain a background value. The Percent viability of each sample was determined as follows: (RLU sample-RLU background/RLU untreated cells-RLU background)×100=% viability.
(In general: Cellular ATP, detected with luciferase, serves as a proxy for viable cell number.)

By IC50 is commonly meant the concentration needed to halve the response being measured. A lower IC50 goes with inhibition by little substance.

In the case of `CC/C(=C(/c1ccc(/C=C/C(=O)NOC)cc1)c1ccc2[nH]ncc2c1)c1ccc(F)cc1Cl` [Compound 421, (E)-3-(4-((E)-2-(2-Chloro-4-fluorophenyl)-1-(1H-indazol-5-yl)but-1-en-1-yl)phenyl)-N-methoxyacrylamide], in assay [1], the Emax was at least 40% and the DC50 is at most 100 nM. Also, in assay [2], the “MCF7 Viability Assay Max Response” value is recorded as “++ (++ = a single % value ≧ 40%)” and the IC50 was at most 100 nM.

As for `CC/C(=C(/c1ccc(/C=C/C(=O)O)cc1)c1ccc2[nH]ncc2c1F)c1ccc(Oc2ccccn2)cc1` [Compound 296, (E)-3-(4-((E)-1-(4-Fluoro-1H-indazol-5-yl)-2-(4-(pyridin-2-yloxy)phenyl)but-1-en-1-yl)phenyl)acrylic acid], in assay [1], the Emax is at least 40% and the DC50 is at most 100 nM. In assay [2], the “MCF7 Viability Assay Max Response” value is given as “++ (++ = a single % value ≧ 40%)” and the IC50 is at most 100 nM.

For the molecule `CC/C(=C(/c1ccc(/C=C/C(=O)O)cc1)c1ccc2[nH]ncc2c1)c1ccc(OCCOC)cc1` [Compound 339, (E)-3-(4-((E)-1-(1H-Indazol-5-yl)-2-(4-(2-methoxyethoxy)phenyl)but-1-en-1-yl)phenyl)acrylic acid], in assay [1], the Emax was at least 40% and the DC50 is at most 100 nM. Moreover, in assay [2], the “MCF7 Viability Assay Max Response” value was “++ (++ = a single % value ≧ 40%)” and the IC50 was at most 100 nM.

For the molecule `CC/C(=C(/c1ccc(/C=C/C(=O)O)cc1)c1ccc2[nH]ncc2c1)c1cccc(Oc2ccc(S(C)(=O)=O)cc2)c1` [Compound 373, (E)-3-(4-((E)-1-(1H-Indazol-5-yl)-2-(3-(4-(methylsulfonyl)phenoxy)phenyl)but-1-en-1-yl)phenyl)acrylic acid], in assay [1], the Emax is at least 40% and the DC50 was at most 100 nM. Besides, in assay [2], the “MCF7 Viability Assay Max Response” value is listed as “++ (++ = a single % value ≧ 40%)” and the 50% inhibitory concentration (IC50) was at most 100 nM.

`CC/C(=C(/c1ccc(/C=C/C(=O)O)cc1)c1ccc2[nH]nc(F)c2c1)c1cscc1C` [Compound 312, (E)-3-(4-((E)-1-(3-Fluoro-1H-indazol-5-yl)-2-(4-methylthiophen-3-yl)but-1-en-1-yl)phenyl)acrylic acid]: in assay [1], the Emax is at least 40% and the DC50 is at most 100 nM. Moreover, in assay [2], the “MCF7 Viability Assay Max Response” value is given as “++ (++ = a single % value ≧ 40%)” and the IC50 is at most 100 nM.

In the case of `CC/C(=C(/c1ccc(/C=C/C(=O)O)cc1)c1ccc2[nH]ncc2c1)c1ccc(OCCCOC)cc1` [Compound 340, (E)-3-(4-((E)-1-(1H-Indazol-5-yl)-2-(4-(3-methoxypropoxy)phenyl)but-1-en-1-yl)phenyl)acrylic acid], in assay [1], the Emax was at least 40% and the DC50 is at most 100 nM. Further, in assay [2], the “MCF7 Viability Assay Max Response” value is given as “++ (++ = a single % value ≧ 40%)” and the IC50 is at most 100 nM.

With `CC/C(=C(/c1ccc(/C=C/C(=O)O)cc1)c1ccc2[nH]ncc2c1)c1ccc(N(C)c2ccccc2)cc1` [Compound 396, (E)-3-(4-((E)-1-(1H-Indazol-5-yl)-2-(4-(methyl(phenyl)amino)phenyl)but-1-en-1-yl)phenyl)acrylic acid & (E)-3-(4-((Z)-1-(1H-indazol-5-yl)-2-(4-(methyl(phenyl)amino)phenyl)but-1-en-1-yl)phenyl)acrylic acid (1:1 Mixture)], in assay [1], the Emax is at least 40% and the DC50 is above 100 nM. Besides, in assay [2], the “MCF7 Viability Assay Max Response” value is listed as “++ (++ = a single % value ≧ 40%)” and the IC50 was above 100 nM.

`CC/C(=C(/c1ccc(/C=C/C(=O)O)cc1)c1ccc2nccn2c1)c1ccccc1C` [Compound 129, (E)-3-(4-((E)-1-(Imidazo[1,2-a]pyridin-6-yl)-2-(o-tolyl)but-1-en-1-yl)phenyl)acrylic acid]: in assay [1], the Emax was at least 40% and the DC50 is at most 100 nM. For the same molecule, in assay [2], the “MCF7 Viability Assay Max Response” value is recorded as “++ (++ = a single % value ≧ 40%)” and the IC50 was above 100 nM.

Consider `CC/C(=C(/c1ccc(/C=C/C(=O)O)cc1)c1ccc2[nH]ncc2c1)c1ccc(S(=O)(=O)C(F)(F)F)cc1` [Compound 288], for which, in assay [1], the Emax was at least 40% and the DC50 was at most 100 nM. Further, in assay [2], the “MCF7 Viability Assay Max Response” value is “++ (++ = a single % value ≧ 40%)” and the half-maximal inhibitory concentration (IC50) is above 100 nM.

As for `Cc1cscc1/C(=C(\c1ccc(/C=C/C(=O)O)cc1)c1ccc2[nH]nc(F)c2c1)C1CCC1` [Compound 313, (E)-3-(4-((E)-2-Cyclobutyl-1-(3-fluoro-1H-indazol-5-yl)-2-(4-methylthiophen-3-yl)vinyl)phenyl)acrylic acid], in assay [1], the Emax was at least 40% and the DC50 was at most 100 nM. In assay [2], the “MCF7 Viability Assay Max Response” value is reported as “++ (++ = a single % value ≧ 40%)” and the IC50 is at most 100 nM.

For the molecule `CC/C(=C(/c1ccc(/C=C/C(=O)O)cc1)c1ccc2[nH]ncc2c1)c1ccc(Oc2ccncc2)cc1` [Compound 315, (E)-3-(4-((E)-1-(1H-Indazol-5-yl)-2-(4-(pyridin-4-yloxy)phenyl)but-1-en-1-yl)phenyl)acrylic acid], in assay [1], the Emax is at least 40% and the DC50 is at most 100 nM. In addition, in assay [2], the “MCF7 Viability Assay Max Response” value is “++ (++ = a single % value ≧ 40%)” and the IC50 was at most 100 nM.

For `CCCCCS(=O)(=O)NC(=O)/C=C/c1ccc(/C(=C(/CC)c2ccc(F)cc2Cl)c2ccc3[nH]ncc3c2)cc1` [Compound 410, (E)-3-(4-((E)-2-(2-Chloro-4-fluorophenyl)-1-(1H-indazol-5-yl)but-1-en-1-yl)phenyl)-N-(pentylsulfonyl)acrylamide], in assay [1], the Emax was at least 40% and the DC50 was at most 100 nM. In assay [2], the “MCF7 Viability Assay Max Response” value is “++ (++ = a single % value ≧ 40%)” and the IC50 is at most 100 nM.

With `CC/C(=C(/c1ccc(OC2(C(=O)O)CC2)cc1)c1ccc2[nH]ncc2c1)c1ccc(F)cc1Cl` [Compound 332, (E)-1-(4-(2-(2-Chloro-4-fluorophenyl)-1-(1H-indazol-5-yl)but-1-en-1-yl)phenoxy)cyclopropanecarboxylic acid], in assay [1], the Emax is at least 40% and the DC50 is above 100 nM. Moreover, in assay [2], the “MCF7 Viability Assay Max Response” value is listed as “++ (++ = a single % value ≧ 40%)” and the IC50 was above 100 nM.

Turning to `CC/C(=C(/c1ccc(/C=C/C(=O)O)cc1)c1ccc2[nH]ncc2c1)c1cccnc1C(F)(F)F` [Compound 222, (E)-3-(4-((E)-1-(1H-Indazol-5-yl)-2-(2-(trifluoromethyl)pyridin-3-yl)but-1-en-1-yl)phenyl)acrylic acid], in assay [1], the Emax was at least 40% and the DC50 was at most 100 nM. Further, in assay [2], the “MCF7 Viability Assay Max Response” value is recorded as “++ (++ = a single % value ≧ 40%)” and the IC50 is at most 100 nM.

Take `CC/C(=C(/c1ccc(/C=C/C(=O)O)cc1)c1ccc2[nH]ncc2c1)c1ccc(OCCCC(=O)O)cc1` [Compound 353, 4-(4-((E)-1-(4-((E)-2-Carboxyvinyl)phenyl)-1-(1H-indazol-5-yl)but-1-en-2-yl)phenoxy)butanoic acid]: in assay [1], the Emax is at least 40% and the DC50 is above 100 nM. Further, in assay [2], the “MCF7 Viability Assay Max Response” value is reported as “+ (+ = a single % value < 40%)” and the IC50 was above 100 nM.

The record behind these values is patent publication US9399646B2 (Genentech, Inc., priority 2010, dated 2016).
